Data taken from ChEMBL document CHEMBL1201862, “PubChem BioAssay data set” (2004).
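Five compound concentrations were applied to cells in 96-well plates for 48 hours; endpoints were derived by simple linear interpolation of the resulting dose-response curve. GI50: concentration for 50% inhibition of growth.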 Calls of active or inactive are those of the source. Cut-off read from the data, not from the text of the source: active = GI50 up to about 1.1 µM and inactive = higher.

How the values were obtained:
Experiment in all cases: DTP human tumour cell line panel, 48 h
MDA-MB-231 = system: MDA-MB-231
UO-31 = system: UO-31
OVCAR-8 = system: OVCAR-8
HL-60 = system: HL-60
OVCAR-4 = system: OVCAR-4
MDA-MB-435 = system: MDA-MB-435
CCRF-CEM = system: CCRF-CEM
NCI/ADR-RES = system: NCI/ADR-RES
SR = system: SR
PC-3 = system: PC-3
HCC 2998 = system: HCC 2998
COLO 205 = system: COLO 205
SW-620 = system: SW-620
T47D = system: T47D
MDA-N = system: MDA-N
HCT-116 = system: HCT-116
SNB-19 = system: SNB-19
SF-539 = system: SF-539
NCI-H460 = system: NCI-H460
HOP-62 = system: HOP-62
A549 = system: A549
HT-29 = system: HT-29
K562 = system: K562
EKVX = system: EKVX
TK-10 = system: TK-10
SK-OV-3 = system: SK-OV-3
SN12C = system: SN12C
NCI-H522 = system: NCI-H522
HCT-15 = system: HCT-15
SF-268 = system: SF-268
UACC-257 = system: UACC-257
Hs-578T = system: Hs-578T
MOLT-4 = system: MOLT-4
IGROV-1 = system: IGROV-1
U-251 = system: U-251
SK-MEL-28 = system: SK-MEL-28
786-0 = system: 786-0
RPMI-8226 = system: RPMI-8226
M14 = system: M14
MCF7 = system: MCF7
ACHN = system: ACHN
SK-MEL-5 = system: SK-MEL-5
OVCAR-5 = system: OVCAR-5
SNB-75 = system: SNB-75
HOP-92 = system: HOP-92
SF-295 = system: SF-295
A498 = system: A498
OVCAR-3 = system: OVCAR-3
RXF 393 = system: RXF 393
Malme-3M = system: Malme-3M
LOX IMVI = system: LOX IMVI
NCI-H226 = system: NCI-H226
UACC-62 = system: UACC-62
NCI-H23 = system: NCI-H23
SK-MEL-2 = system: SK-MEL-2
DU-145 = system: DU-145
CAKI-1 = system: CAKI-1
KM12 = system: KM12

CC(C)(CCCCC(C)(C)[N+](C)(C)C)[N+](C)(C)C
GI50 (MDA-MB-231): > 100 µM (inactive) | GI50 (UO-31): > 100 µM (inactive) | GI50 (OVCAR-8): > 100 µM (inactive) | GI50 (HL-60): > 100 µM (inactive) | GI50 (OVCAR-4): > 100 µM (inactive) | GI50 (MDA-MB-435): > 100 µM (inactive) | GI50 (CCRF-CEM): > 100 µM (inactive) | GI50 (NCI/ADR-RES): > 100 µM (inactive) | GI50 (SR): > 100 µM (inactive) | GI50 (PC-3): > 100 µM (inactive) | GI50 (HCC 2998): > 100 µM (inactive) | GI50 (COLO 205): > 100 µM (inactive) | GI50 (SW-620): > 100 µM (inactive) | GI50 (T47D): > 100 µM (inactive) | GI50 (MDA-N): > 100 µM (inactive) | GI50 (HCT-116): > 100 µM (inactive) | GI50 (SNB-19): > 100 µM (inactive) | GI50 (SF-539): > 100 µM (inactive) | GI50 (NCI-H460): > 100 µM (inactive) | GI50 (HOP-62): > 100 µM (inactive) | GI50 (A549): > 100 µM (inactive) | GI50 (HT-29): > 100 µM (inactive) | GI50 (K562): > 100 µM (inactive) | GI50 (EKVX): > 100 µM (inactive) | GI50 (TK-10): > 100 µM (inactive) | GI50 (SK-OV-3): > 100 µM (inactive) | GI50 (SN12C): > 100 µM (inactive) | GI50 (NCI-H522): > 100 µM (inactive) | GI50 (HCT-15): > 100 µM | GI50 (SF-268): > 100 µM (inactive) | GI50 (UACC-257): > 100 µM (inactive) | GI50 (Hs-578T): > 100 µM (inactive) | GI50 (MOLT-4): > 100 µM (inactive) | GI50 (IGROV-1): > 100 µM (inactive) | GI50 (U-251): > 100 µM (inactive) | GI50 (SK-MEL-28): > 100 µM (inactive) | GI50 (786-0): > 100 µM (inactive) | GI50 (RPMI-8226): > 100 µM (inactive) | GI50 (M14): > 100 µM (inactive) | GI50 (MCF7): > 100 µM (inactive) | GI50 (ACHN): > 10 µM (inactive) | GI50 (SK-MEL-5): > 100 µM (inactive) | GI50 (OVCAR-5): > 100 µM (inactive) | GI50 (SNB-75): > 100 µM (inactive)

O=Cc1c2c(cc3c1CC1(C3)Cc3cc4c(c(C=O)c3C1)CCC4)CCC2
GI50 (MDA-MB-231): 23.5 µM (inactive) | GI50 (HOP-92): 23 µM (inactive) | GI50 (UO-31): 2.37 µM (inactive) | GI50 (OVCAR-8): 47.3 µM (inactive) | GI50 (HL-60): 27.5 µM (inactive) | GI50 (OVCAR-4): 20.9 µM (inactive) | GI50 (MDA-MB-435): 45.6 µM (inactive) | GI50 (SF-295): 59.3 µM (inactive) | GI50 (CCRF-CEM): 17 µM (inactive) | GI50 (NCI/ADR-RES): 68.2 µM (inactive) | GI50 (SR): 35.1 µM (inactive) | GI50 (PC-3): 30.3 µM (inactive) | GI50 (HCC 2998): 36.6 µM (inactive) | GI50 (COLO 205): 27.2 µM (inactive) | GI50 (T47D): 46.1 µM (inactive) | GI50 (MDA-N): 48.2 µM (inactive) | GI50 (HCT-116): 14.7 µM (inactive) | GI50 (SF-539): 37.5 µM (inactive) | GI50 (A498): 30.7 µM (inactive) | GI50 (HOP-62): 17.1 µM (inactive) | GI50 (A549): 30.3 µM (inactive) | GI50 (HT-29): 31.3 µM (inactive) | GI50 (K562): 14.4 µM (inactive) | GI50 (OVCAR-3): 24.1 µM (inactive) | GI50 (EKVX): 47.3 µM (inactive) | GI50 (TK-10): 32.5 µM (inactive) | GI50 (RXF 393): 41.3 µM (inactive) | GI50 (SK-OV-3): 36.1 µM (inactive) | GI50 (SN12C): 65.9 µM (inactive) | GI50 (Malme-3M): 27.5 µM (inactive) | GI50 (NCI-H522): 24.9 µM (inactive) | GI50 (HCT-15): > 100 µM | GI50 (LOX IMVI): 21.8 µM (inactive) | GI50 (NCI-H226): 29.1 µM (inactive) | GI50 (UACC-257): 34.8 µM (inactive) | GI50 (Hs-578T): 23.1 µM (inactive) | GI50 (MOLT-4): 11.3 µM (inactive) | GI50 (IGROV-1): 17 µM (inactive) | GI50 (U-251): 16.3 µM (inactive) | GI50 (786-0): > 100 µM (inactive) | GI50 (UACC-62): 22.3 µM (inactive) | GI50 (RPMI-8226): 43.6 µM (inactive) | GI50 (M14): 32.6 µM (inactive) | GI50 (MCF7): 36 µM (inactive) | GI50 (NCI-H23): 45.3 µM (inactive) | GI50 (SK-MEL-2): 21.3 µM (inactive) | GI50 (ACHN): 16.6 µM (inactive) | GI50 (SK-MEL-5): 29.9 µM (inactive) | GI50 (OVCAR-5): > 100 µM (inactive)

COc1ccc(C=C2C(=O)NC(=S)NC2=O)c2ccccc12
GI50 (DU-145): 23.8 µM (inactive) | GI50 (MDA-MB-231): 39.9 µM (inactive) | GI50 (HOP-92): > 100 µM (inactive) | GI50 (UO-31): > 100 µM (inactive) | GI50 (OVCAR-8): 33.4 µM (inactive) | GI50 (HL-60): 24.3 µM (inactive) | GI50 (OVCAR-4): > 100 µM (inactive) | GI50 (MDA-MB-435): 27 µM (inactive) | GI50 (SF-295): 31.3 µM (inactive) | GI50 (CCRF-CEM): 32.4 µM (inactive) | GI50 (NCI/ADR-RES): 26.7 µM (inactive) | GI50 (SR): 42.7 µM (inactive) | GI50 (PC-3): 26.2 µM (inactive) | GI50 (HCC 2998): 32.6 µM (inactive) | GI50 (SW-620): 33.4 µM (inactive) | GI50 (T47D): 32.1 µM (inactive) | GI50 (MDA-N): 18.1 µM (inactive) | GI50 (HCT-116): 40 µM (inactive) | GI50 (SF-539): 22 µM (inactive) | GI50 (NCI-H460): 12 µM (inactive) | GI50 (A498): 0.224 µM (active) | GI50 (HOP-62): 30.4 µM (inactive) | GI50 (CAKI-1): 50.2 µM (inactive) | GI50 (HT-29): 28.2 µM (inactive) | GI50 (KM12): 44.3 µM (inactive) | GI50 (K562): 43.4 µM (inactive) | GI50 (OVCAR-3): 24 µM (inactive) | GI50 (EKVX): 82 µM (inactive) | GI50 (TK-10): 7.6 µM (inactive) | GI50 (RXF 393): 20.7 µM (inactive) | GI50 (SK-OV-3): 37.1 µM (inactive) | GI50 (NCI-H522): 47.2 µM (inactive) | GI50 (HCT-15): 33.1 µM | GI50 (SF-268): 34.5 µM (inactive) | GI50 (LOX IMVI): 34.4 µM (inactive) | GI50 (NCI-H226): 0.179 µM (active) | GI50 (UACC-257): 14.4 µM (inactive) | GI50 (Hs-578T): 28.2 µM (inactive) | GI50 (MOLT-4): 83.2 µM (inactive) | GI50 (IGROV-1): 38.3 µM (inactive) | GI50 (U-251): 27.6 µM (inactive) | GI50 (SK-MEL-28): 57.8 µM (inactive) | GI50 (786-0): 47 µM (inactive) | GI50 (RPMI-8226): 34.5 µM (inactive) | GI50 (M14): 45 µM (inactive) | GI50 (MCF7): 22.5 µM (inactive) | GI50 (NCI-H23): 32.8 µM (inactive) | GI50 (SK-MEL-2): 21.2 µM (inactive) | GI50 (ACHN): 97.5 µM (inactive) | GI50 (SK-MEL-5): 29.1 µM (inactive) | GI50 (OVCAR-5): 5.13 µM (inactive)
